Assays:
[1] = liver microsomal stability; format: in vitro ADME; details: compared to two other structurally close compounds
solubility in water = format: physicochemical; details: pH 3.5
bioavailability = format: in vivo; details: systemic injection and oral administration
EGFR [2] = target: T1, EGFR (Homo sapiens, UniProt P00533); assay: EGFR degradation; format: cell-based; details: instead of inhibiting the activity
T1 construct: endogenous in cells; host or cells: HCT-116, Panc1 (inferred; the sentence holding the result names no cells)

EGFR [3] = target: T1, EGFR; assay: EGF-induced EGFR dimerization; format: cell-based
purified EGFR = purified EGFR (Homo sapiens, UniProt P00533); assay: direct binding to purified EGFR
[4] = test system: EGFR-driven osimertinib resistant cell lines; assay: activity in osimertinib resistant cell lines; format: cell-based
[5] = test system: cetuximab-resistant cell-lines; assay: IC50 against cetuximab-resistant cell-lines; format: cell-based; details: cetuximab-resistant cell-lines expressing mutant KRAS
[6] = test system: immortalized cells of non-cancer origin; assay: IC50 in immortalized cells of non-cancer origin; format: cell-based
UMSCC74B = format: in vivo
Method: FIG. 1 depicts the effect of DGD1202 in mutant KRAS (and EGFR co-driven) head and neck (UMSCC74B) tumor model.
Tumor-bearing mice were treated with DGD1202 via oral gavage in 30 mg/kg dose biweekly for one week. This dose was selected based on its single-dose PK profile.

HCT-116 [7] = assay: clonogenic survival assay HCT-116; format: cell-based; details: KRAS G13D driven cetuximab-resistant colorectal cell-line; FIG. 2
Method: A study was conducted to evaluate the activity of DGD1202 in a KRAS G13D driven cetuximab-resistant colorectal cell-line (HCT-116) using clonogenic survival assays (FIG. 2) and in a pancreatic cancer cell line (Panc1) that contains KRAS G12D mutation (FIG. 3B).
More specifically, cells were plated at clonal density in 60 or 100 mm culture dishes in triplicate one day before treatment with a range of concentrations (e.g., 0-10 micro M). Eight to twelve days later, cells were fixed with acetic acid/methanol (1:7, v/v), stained with crystal violet (0.5%, w/v), and counted using a stereomicroscope. Drug cytotoxicity (surviving drug-treated cells) was measured and normalized to the survival of the untreated control cells.

HCT-116 [8] = assay: immunoblotting HCT-116; format: cell-based; details: preliminary data
Method: (§1) FIG. 3 depicts the effect of DGD1202 on EGFR, KRAS and downstream signaling. (A). HCT-116 (colorectal cancer) cells were treated with DGD1202 for 5 h or 15 h, and whole cell lysates were probed with listed antibodies. (B). Evaluation of DGD1202 effects against the KRAS G12D driven pancreatic cell line (Panc1) tumor model; effect of treatment on the steady-state level of EGFR and mtKRAS was determined by immunoblotting; and GAPDH expression was assessed as a loading control.
(§2) The effect of DGD1202 on EGFR, ERK and AKT was also evaluated by immunoblotting. The preliminary data for DGD1202 in mutant KRAS driven HCT-116 (CRC) and Panc1 (Pancreas) cell lines are shown in FIG. 3A and FIG. 3B, respectively.
(§3) Cells were plated in 60-mm dishes at a density of 3×10^5 cells per dishes and incubated overnight or to 70% confluence. The cells were treated with the vehicle (DMSO) or DGD1202 and then were harvested at various time points. The pellets were washed twice with ice-cold PBS and re-suspended in lysis buffer for 30 min. After sonication, particulate material was removed by centrifugation at 13,000 rpm for 10 min at 4° C. […] After three additional washes in Tris-buffered saline, bound antibody was detected by enhanced chemiluminescence plus reagent. For quantification of relative protein levels, immunoblot films were scanned and analyzed using Image J 1.32j software. […]

Panc1 = assay: immunoblotting Panc1; format: cell-based; details: Panc1, KRAS G12D specific antibody; preliminary data
Method: as §1, §2, §3

[9] = test system: PanIn (pancreatic intraepithelial neoplasia); assay: KRAS G12D driven pancreatic tumor model (KC mice); format: in vivo; details: 30 mg/kg oral gavage daily for 5 weeks, scored at week 11
Method: A study was conducted to evaluate the efficacy of DGD1202 in KRAS G12D driven pancreatic tumor model.
More specifically, 6-week old KC mice were treated with DGD1202 via oral gavage (30 mg/kg body weight, daily) for 5 weeks.

NCI-H1975-AZR = NCI-H1975-AZR (osimertinib resistant) xenograft; format: in vivo; details: SCID mice, 75 mg/kg oral gavage daily for two weeks
Method: FIG. 5 depicts the effect of DGD1202 on osimertinib resistant, NCI-H1975 lung cancer xenografts. (A). SCID mice bearing NCI-H1975 osimertinib resistant xenografts were treated with DGD1202 (75 mg/kg, daily, PO). The arrow marks the initiation of treatment with DGD1202. Change in tumor volume is plotted. (B). The effect of DGD1202 treatment on EGFR was assessed in tumors harvested 3 days post DGD1202 treatment.
A study was conducted to evaluate the efficacy of DGD1202 in mutant EGFR driven lung cancer model (FIG. 5).
Briefly, SCID mice bearing locally advanced NCI-H1975-AZR (osimertinib resistant) xenograft were treated daily with oral gavage of DGD1202 (75 mg/kg) for two weeks. Tumor volumes were measured using calipers at least three times a week. The effect of DGD1202 treatment on EGFR expression was determined by IHC staining 3-days after initiation of treatment.

lung lesion = assay: genetically engineered KRAS-LSL-G12D mouse model of lung cancer; format: in vivo, mice; details: 30 mg/kg oral gavage Monday-Friday for 4 weeks; paired t-test p=0.0577
Method: The efficacy of DGD1202 treatment was assessed for KRAS-mutant lung tumor initiation and progression. A genetically engineered KRAS-LSL-G12D mouse model of lung cancer was used. This mouse carries a Lox-Stop-Lox (LSL) sequence followed by the KRAS G12D point mutation allele. Tumorigenesis was initiated by intra-nasal delivery of Adenovirus-Cre particles (1.5×10e^7 pfu) that transduced lung epithelial cells to express Cre recombinase that deletes the LSL cassette and allows the expression of the mutant KRAS oncogenic protein.
Eight weeks after viral delivery, the mice were treated either with vehicle or with DGD1202 on a Monday-Friday schedule for 4 weeks at a dose of 30 mg/kg oral gavage. When mice were 20-week old, the lungs were harvested and the H&E sections underwent morphological assessment. The histopathological spectrum of the lung lesions was noted and recorded in a double-blinded fashion for hyperplasia—alveolar or bronchial, the pattern of hyperplasia, adenoma, hyperplasia with focal atypia, bronchial dysplasia, adenomas, and atypical adenomatous hyperplasia. The percentage of lung lesion and total area of lung lesion from each lobe in every sample from both treatment group were scored and are shown in FIG. 6.

T1 sequence (P00533 25-1210): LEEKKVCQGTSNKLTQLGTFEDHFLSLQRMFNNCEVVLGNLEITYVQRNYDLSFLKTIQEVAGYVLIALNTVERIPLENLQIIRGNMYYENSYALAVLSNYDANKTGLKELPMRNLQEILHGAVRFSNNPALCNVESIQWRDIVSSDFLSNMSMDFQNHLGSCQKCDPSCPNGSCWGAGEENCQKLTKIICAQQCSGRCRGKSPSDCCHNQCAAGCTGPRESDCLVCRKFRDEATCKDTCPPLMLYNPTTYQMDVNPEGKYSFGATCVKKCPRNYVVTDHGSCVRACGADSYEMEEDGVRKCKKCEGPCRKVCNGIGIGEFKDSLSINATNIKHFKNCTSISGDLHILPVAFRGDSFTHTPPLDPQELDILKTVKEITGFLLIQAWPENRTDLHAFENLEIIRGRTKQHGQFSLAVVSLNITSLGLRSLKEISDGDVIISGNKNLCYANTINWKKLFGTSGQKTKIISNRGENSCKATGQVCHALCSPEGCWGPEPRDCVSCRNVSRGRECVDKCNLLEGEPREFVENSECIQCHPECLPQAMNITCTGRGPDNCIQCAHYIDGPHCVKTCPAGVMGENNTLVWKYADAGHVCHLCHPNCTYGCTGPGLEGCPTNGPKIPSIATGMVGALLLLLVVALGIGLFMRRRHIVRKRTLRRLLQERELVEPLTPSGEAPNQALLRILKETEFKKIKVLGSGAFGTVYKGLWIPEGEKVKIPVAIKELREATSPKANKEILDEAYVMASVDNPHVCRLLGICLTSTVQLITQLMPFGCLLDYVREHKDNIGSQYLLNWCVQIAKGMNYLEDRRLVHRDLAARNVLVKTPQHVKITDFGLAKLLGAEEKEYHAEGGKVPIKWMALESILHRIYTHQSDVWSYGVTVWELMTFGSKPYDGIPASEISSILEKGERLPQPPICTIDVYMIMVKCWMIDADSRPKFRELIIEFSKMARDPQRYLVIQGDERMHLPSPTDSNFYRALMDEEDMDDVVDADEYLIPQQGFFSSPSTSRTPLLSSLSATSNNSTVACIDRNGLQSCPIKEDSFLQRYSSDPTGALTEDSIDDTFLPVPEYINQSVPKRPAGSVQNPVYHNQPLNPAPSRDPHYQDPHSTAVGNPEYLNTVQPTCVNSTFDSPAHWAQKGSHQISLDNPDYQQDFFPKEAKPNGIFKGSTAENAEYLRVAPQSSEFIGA
purified EGFR, sequence (P00533 25-1210): as above

Structure (SMILES): CN1CCC2(CC1)N=C(SCC(=O)Nc1cnc3ccccc3c1)C(c1ccc(Br)cc1)=N2 [DGD1202, 2-((3-(4-bromophenyl)-8-methyl-1,4,8-triazaspiro[4.5]deca-1,3-dien-2-yl)thio)-N-(quinolin-3-yl)acetamide]
- liver microsomal stability [1]: much better liver microsomal stability
- solubility in water (solubility in water): soluble in water at pH 3.5
- bioavailability (bioavailability): bioavailable
- EGFR degradation (EGFR [2]): degrades EGFR
- EGF-induced EGFR dimerization (EGFR [3]): blocks EGF-induced EGFR dimerization
- binding to purified EGFR (purified EGFR): directly binds to purified EGFR
- activity in EGFR-driven osimertinib resistant cell lines [4]: selectively active
- IC50 [5]: 500 to 2200 nM
- IC50 [6]: > 20 µM
- safety of dose and regimen (UMSCC74B; 30 mg/kg oral gavage, tumor-bearing mice): safe
- tumor growth (UMSCC74B; UMSCC74B tumor-bearing mice, DGD1202 30 mg/kg oral gavage, cetuximab 100 mg/kg (FIG. 1), P<0.001 for DGD1202): significant tumor growth suppression
- clonogenic survival (HCT-116 [7]): effective
- EGFR and KRAS levels by immunoblotting (HCT-116 [8]; HCT116, PAN-RAS antibody, 5 h or 15 h): affected both EGFR and mtKRAS
- downstream signaling pAKT and pERK by immunoblotting (HCT-116 [8]; HCT-116): affected downstream signaling in pAKT and pERK
- EGFR and mtKRAS levels by immunoblotting (Panc1): affected both EGFR and mtKRAS (Panc1) levels
- effect on PanIn (pancreatic intraepithelial neoplasia) [9]: significantly reduced propensity for developing PanIn
- efficacy on tumor volume (NCI-H1975-AZR): exhibited efficacy
- percentage of lung lesion and total area of lung lesion vs vehicle (lung lesion): tend towards significance

Source: patent US20220273643A1, “METHOD OF TREATING KRAS-ASSOCIATED CANCERS” (THE REGENTS OF THE UNIVERSITY OF MICHIGAN, priority 2019, published 2022)
